Calls of active or inactive are those of the source.
Assays:
[1] = viability loss in Vero cells – cytotoxicity control for Vif-APOBEC3G degradation inhibitor project, dose response (AID 1117358); assay type: functional; details: Vero
[2] = Luminescence Cell-Based Dose Response HTS to Identify Inhibitors of 5'UTR Stem-Loop Driven Prion Protein mRNA Translation in H4 Neuroglioblastoma Cells. [Related pubchem assays: 1827 (Project Summary), 1813 (Primary HTS)]; assay type: functional
HEK293 [3] = experiment: cells; details: Homo sapiens
HEK293 [4] = experiment: cells; details: Homo sapiens; remark: listed apart in the source
[5] = luciferase reporter signal suppression in cells – H4 neuroglioma cells, luminescence, dose response (AID 1990); assay type: functional, cell-based
[6] = HIV-1 Vif–A3G interaction blockers – biochemical, TR-FRET, GST-Vif 1-94, biotin-A3G peptide, dose response retest, primary screen (AID 1117319); assay type: functional;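 also: TR-FRET signal of purified GST-Vif binding a biotinylated A3G peptide; inhibitors lower the FRET signal by blocking Vif and A3G binding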
[7] = alpha-synuclein stem-loop luciferase translation blockers – H4 neuroglioma cells, luminescence, confirmation (AID 1988); assay type: functional, cell-based
[8] = target: Voltage-gated inwardly rectifying potassium channel KCNH2 (Homo sapiens, UniProt Q12809); experiment: concentration-dependent hERG rescue from blockers – cell-based, thallium flux, dose response (AID 2121); assay type: ADME
Sequence of Voltage-gated inwardly rectifying potassium channel KCNH2 (Q12809 whole entry): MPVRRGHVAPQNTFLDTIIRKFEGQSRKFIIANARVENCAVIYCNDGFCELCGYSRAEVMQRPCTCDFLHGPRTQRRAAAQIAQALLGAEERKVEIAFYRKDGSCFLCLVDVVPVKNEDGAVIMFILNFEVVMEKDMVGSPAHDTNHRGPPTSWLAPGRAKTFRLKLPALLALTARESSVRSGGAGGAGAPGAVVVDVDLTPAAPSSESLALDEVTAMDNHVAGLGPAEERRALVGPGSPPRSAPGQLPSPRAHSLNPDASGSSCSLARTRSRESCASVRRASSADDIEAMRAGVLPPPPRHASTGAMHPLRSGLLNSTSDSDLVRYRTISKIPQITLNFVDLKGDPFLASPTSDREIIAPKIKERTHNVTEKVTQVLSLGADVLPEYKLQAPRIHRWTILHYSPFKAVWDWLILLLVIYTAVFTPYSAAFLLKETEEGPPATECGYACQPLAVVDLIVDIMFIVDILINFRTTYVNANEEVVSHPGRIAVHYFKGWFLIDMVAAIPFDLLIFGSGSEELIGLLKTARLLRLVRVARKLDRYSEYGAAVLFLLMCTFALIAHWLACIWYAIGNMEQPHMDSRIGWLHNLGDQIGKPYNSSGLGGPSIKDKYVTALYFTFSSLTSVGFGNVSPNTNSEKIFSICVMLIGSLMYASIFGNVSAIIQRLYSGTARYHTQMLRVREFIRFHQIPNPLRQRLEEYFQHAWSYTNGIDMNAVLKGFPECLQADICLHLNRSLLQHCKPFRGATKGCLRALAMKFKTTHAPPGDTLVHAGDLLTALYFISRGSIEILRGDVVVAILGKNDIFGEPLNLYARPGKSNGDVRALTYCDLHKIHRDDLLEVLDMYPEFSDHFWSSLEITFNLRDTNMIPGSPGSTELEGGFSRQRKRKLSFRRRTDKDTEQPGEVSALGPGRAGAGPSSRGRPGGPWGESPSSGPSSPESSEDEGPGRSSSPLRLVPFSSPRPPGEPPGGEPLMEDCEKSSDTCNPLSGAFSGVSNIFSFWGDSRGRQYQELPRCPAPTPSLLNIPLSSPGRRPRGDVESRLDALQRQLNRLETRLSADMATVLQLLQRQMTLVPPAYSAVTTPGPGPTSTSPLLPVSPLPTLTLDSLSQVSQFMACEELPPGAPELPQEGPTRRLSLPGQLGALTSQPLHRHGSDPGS

Hexokinase = target: T1, Hexokinase (Trypanosoma brucei, UniProt Q38C41); experiment: Confirmation assay for inhibitors of Trypanosoma brucei hexokinase 1-Analogue-first series. [Related pubchem assays (depositor defined):AID1430, AID1632, AID2516, AID2560, AID2579, AID2600, AID449725, AID492951]; assay type: functional
T1 sequence (Q38C41 whole entry): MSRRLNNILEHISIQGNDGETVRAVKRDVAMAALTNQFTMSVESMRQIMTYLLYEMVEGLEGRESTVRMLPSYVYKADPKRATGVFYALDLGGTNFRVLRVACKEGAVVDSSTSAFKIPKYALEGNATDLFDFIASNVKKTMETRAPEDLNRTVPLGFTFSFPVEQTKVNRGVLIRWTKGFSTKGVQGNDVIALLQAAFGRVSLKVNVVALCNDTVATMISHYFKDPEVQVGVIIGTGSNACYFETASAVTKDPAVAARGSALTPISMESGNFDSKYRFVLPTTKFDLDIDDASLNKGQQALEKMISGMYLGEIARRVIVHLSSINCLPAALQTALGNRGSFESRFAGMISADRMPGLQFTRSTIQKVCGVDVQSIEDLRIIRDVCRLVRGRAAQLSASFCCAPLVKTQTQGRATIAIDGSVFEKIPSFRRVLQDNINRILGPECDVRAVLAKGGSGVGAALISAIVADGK

[9] = target: Mitogen-activated protein kinase 10 (Homo sapiens, UniProt P53779); experiment: Dose response biochemical screening assay for inhibitors of c-Jun N-Terminal Kinase 3 (JNK3). [Related pubchem assays: 746 ]
Sequence of Mitogen-activated protein kinase 10 (P53779 whole entry): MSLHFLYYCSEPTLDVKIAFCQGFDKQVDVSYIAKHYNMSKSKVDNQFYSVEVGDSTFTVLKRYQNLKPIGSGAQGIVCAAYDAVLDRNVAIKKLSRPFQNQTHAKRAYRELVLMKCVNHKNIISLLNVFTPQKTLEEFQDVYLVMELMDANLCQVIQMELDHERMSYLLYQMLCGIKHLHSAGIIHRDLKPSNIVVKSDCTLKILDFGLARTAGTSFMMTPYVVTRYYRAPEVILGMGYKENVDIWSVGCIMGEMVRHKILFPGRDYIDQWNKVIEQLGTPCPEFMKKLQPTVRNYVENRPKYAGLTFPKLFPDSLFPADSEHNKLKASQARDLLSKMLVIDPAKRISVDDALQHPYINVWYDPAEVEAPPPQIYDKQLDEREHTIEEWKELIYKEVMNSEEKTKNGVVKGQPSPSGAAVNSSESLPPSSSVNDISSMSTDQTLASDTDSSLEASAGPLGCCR

Estrogen receptor = Estrogen receptor (Homo sapiens, UniProt P03372);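 also: potency for inhibiting coactivator peptide recruitment to the receptor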
Sequence of Estrogen receptor (P03372 whole entry, the tested form may be a part): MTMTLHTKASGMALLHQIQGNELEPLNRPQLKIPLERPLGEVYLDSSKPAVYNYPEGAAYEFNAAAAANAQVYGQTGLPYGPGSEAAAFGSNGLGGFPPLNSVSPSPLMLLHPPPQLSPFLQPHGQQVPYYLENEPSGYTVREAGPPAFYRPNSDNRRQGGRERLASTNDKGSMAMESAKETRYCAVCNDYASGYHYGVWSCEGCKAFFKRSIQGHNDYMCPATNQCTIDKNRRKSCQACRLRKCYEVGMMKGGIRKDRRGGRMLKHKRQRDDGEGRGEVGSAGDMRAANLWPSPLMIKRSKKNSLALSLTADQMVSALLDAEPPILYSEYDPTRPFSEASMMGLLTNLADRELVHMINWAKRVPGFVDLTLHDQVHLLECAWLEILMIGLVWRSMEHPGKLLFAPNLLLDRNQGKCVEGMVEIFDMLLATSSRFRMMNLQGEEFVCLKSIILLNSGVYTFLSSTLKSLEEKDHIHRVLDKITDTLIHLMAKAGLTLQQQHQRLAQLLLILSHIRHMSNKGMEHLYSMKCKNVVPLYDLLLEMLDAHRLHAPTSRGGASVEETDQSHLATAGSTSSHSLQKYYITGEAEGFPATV

[10] = target: T2, Carboxy-terminal domain RNA polymerase II polypeptide A small phosphatase 1 (Homo sapiens, UniProt Q9GZU7); experiment: CTDSP1 inhibitors, concentration-response, biochemical, absorbance readout, ultra-high-throughput screen actives (AID 540297); assay type: functional
T2 sequence (Q9GZU7 whole entry): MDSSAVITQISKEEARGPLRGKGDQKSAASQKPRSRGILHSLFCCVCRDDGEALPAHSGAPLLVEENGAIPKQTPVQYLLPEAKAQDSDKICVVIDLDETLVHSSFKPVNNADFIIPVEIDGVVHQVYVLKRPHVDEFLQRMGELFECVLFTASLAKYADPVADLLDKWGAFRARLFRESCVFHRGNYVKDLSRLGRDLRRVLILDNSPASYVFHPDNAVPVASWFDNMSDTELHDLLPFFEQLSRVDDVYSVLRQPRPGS

[11] = target: Ubiquitin carboxyl-terminal hydrolase BAP1 (Homo sapiens, UniProt Q92560); experiment: inhibition of BAP1 ubiquitin hydrolase activity – biochemical, dose response (AID 714); assay type: functional
Sequence of Ubiquitin carboxyl-terminal hydrolase BAP1 (Q92560 whole entry): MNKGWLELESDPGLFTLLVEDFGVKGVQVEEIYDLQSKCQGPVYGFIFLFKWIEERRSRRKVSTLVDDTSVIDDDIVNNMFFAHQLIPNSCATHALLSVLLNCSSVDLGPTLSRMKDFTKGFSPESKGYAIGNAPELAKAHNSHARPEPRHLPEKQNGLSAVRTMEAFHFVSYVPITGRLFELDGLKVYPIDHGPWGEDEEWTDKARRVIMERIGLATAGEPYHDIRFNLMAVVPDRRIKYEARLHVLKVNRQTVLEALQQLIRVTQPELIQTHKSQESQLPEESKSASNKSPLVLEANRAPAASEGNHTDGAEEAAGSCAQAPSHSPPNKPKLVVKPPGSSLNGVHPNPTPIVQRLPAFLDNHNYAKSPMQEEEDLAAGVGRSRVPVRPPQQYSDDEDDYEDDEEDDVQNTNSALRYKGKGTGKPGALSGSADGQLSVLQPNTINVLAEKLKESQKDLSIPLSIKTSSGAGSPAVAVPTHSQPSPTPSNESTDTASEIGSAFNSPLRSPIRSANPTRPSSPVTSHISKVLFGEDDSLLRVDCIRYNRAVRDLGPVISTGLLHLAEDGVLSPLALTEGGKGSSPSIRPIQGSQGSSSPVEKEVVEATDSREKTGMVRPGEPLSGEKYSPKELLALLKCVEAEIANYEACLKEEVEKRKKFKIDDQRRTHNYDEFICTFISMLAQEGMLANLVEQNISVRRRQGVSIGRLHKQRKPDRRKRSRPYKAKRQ

Estrogen receptor beta = Estrogen receptor beta (Homo sapiens, UniProt Q92731); experiment: blockers of SRC-3 recruitment to ERβ – biochemical, ELISA, streptavidin-HRP readout, orthogonal assay, confirmation (AID 1060)
Sequence of Estrogen receptor beta (Q92731 whole entry): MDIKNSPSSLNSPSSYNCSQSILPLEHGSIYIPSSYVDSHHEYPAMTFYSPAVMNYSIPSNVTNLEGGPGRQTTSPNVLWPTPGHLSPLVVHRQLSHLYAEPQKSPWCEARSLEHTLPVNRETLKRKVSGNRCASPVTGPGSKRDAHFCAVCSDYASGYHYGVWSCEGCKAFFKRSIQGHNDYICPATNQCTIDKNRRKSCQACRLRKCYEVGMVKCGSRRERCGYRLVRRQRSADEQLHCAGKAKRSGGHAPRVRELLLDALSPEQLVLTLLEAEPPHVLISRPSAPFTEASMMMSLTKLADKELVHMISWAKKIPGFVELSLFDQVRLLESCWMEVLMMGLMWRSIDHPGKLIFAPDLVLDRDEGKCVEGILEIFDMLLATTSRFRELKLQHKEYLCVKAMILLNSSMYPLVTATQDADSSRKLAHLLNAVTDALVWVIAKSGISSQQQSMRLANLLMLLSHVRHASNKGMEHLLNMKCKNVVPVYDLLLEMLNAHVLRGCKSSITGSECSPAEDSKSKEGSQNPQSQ

Leucine aminopeptidase = target: T3, Leucine aminopeptidase (Plasmodium falciparum 3D7, UniProt Q8IL11); experiment: P. falciparum M17LAP inhibitors, primary screen, biochemical, fluorogenic H-Leu-NHMec substrate, 1536-well (AID 1619); assay type: functional
T3 sequence (Q8IL11 whole entry): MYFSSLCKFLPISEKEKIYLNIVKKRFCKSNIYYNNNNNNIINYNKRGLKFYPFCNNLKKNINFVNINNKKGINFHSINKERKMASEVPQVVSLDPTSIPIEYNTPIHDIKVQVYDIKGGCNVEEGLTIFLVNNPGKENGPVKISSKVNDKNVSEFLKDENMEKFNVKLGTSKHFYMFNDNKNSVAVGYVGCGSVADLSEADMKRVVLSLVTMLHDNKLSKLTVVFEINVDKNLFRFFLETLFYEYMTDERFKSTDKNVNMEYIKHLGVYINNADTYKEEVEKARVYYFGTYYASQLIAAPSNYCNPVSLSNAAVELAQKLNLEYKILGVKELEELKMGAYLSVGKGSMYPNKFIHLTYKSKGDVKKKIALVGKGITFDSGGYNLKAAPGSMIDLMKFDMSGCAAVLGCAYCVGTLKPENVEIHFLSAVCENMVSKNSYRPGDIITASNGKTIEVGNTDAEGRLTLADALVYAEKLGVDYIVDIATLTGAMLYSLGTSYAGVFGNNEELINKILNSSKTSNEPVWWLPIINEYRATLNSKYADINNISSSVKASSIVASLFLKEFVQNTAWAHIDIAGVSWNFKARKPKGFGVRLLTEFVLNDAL

INS1 = experiment: INS-1E survival protection against cytokine death – cell-based, luminescence, retest, dose response (AID 449756); assay type: functional; details: Rattus norvegicus;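 also: cell death triggered by IL-1 beta plus TNF-alpha plus IFN-gamma mixture; protective hits raise ATP signal compared with cytokine alone wells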
[12] = target: T4, COUP transcription factor 2 (Homo sapiens, UniProt P24468); experiment: Luminescence-based cell-based high throughput dose response assay to identify inhibitors of COUP-TFII (NR2F2).; assay type: functional;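 also: HEK293 cells transiently cotransfected with COUP-TFII expression vector and reporter; luciferase reporter luminescence driven by COUP-TFII from the pX2-168 reporter plasmid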
T4 sequence (P24468 whole entry): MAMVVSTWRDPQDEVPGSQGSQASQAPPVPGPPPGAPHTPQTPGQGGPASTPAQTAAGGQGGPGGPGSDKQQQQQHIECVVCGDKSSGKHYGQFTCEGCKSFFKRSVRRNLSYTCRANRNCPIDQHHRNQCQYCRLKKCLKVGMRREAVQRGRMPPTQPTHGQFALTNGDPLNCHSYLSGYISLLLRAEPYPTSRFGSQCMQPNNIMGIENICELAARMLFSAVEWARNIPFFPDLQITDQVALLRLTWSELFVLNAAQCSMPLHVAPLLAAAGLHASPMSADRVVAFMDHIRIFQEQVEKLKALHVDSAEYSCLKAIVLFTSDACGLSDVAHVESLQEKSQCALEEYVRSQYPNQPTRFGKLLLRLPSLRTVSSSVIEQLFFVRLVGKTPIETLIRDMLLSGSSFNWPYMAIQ

[13] = target: Sphingosine 1-phosphate receptor 2 (Homo sapiens, UniProt O95136); experiment: Dose Response Cell Based Assay for Antagonists of the S1P2 Receptor. [Related pubchem assays: 856, 736 ]; assay type: functional
Sequence of Sphingosine 1-phosphate receptor 2 (O95136 whole entry): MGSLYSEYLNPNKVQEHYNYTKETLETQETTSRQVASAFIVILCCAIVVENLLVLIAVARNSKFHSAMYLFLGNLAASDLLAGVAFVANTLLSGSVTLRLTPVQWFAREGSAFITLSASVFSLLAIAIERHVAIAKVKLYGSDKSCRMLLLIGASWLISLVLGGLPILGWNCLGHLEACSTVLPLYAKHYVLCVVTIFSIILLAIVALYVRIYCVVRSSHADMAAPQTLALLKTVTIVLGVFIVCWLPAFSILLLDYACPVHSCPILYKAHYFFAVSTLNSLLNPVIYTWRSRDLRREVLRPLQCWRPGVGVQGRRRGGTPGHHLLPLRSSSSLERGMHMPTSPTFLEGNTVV

[14] = Trypanosoma cruzi growth suppression in host cells – NIH3T3 host cells, beta-gal luminescence, confirmation (AID 2044); assay type: functional, cell-based;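 also: intracellular parasites grown in NIH/3T3 mouse fibroblasts as host cells; luminescent beta-galactosidase reporter signal from transgenic T. cruzi replicating inside host cells; inhibitors lower the luminescence signal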
HEK293 [15] = experiment: EBV LMP1 TES2 canonical NF-kB signalling blockers – cell-based, HEK293, luciferase, cherry-pick, dose response (AID 588343); assay type: functional; details: Homo sapiens
[16] = NIH3T3 cell viability loss – ATP luminescence, mouse fibroblasts, counter-screen, dose response (AID 2010); assay type: functional, cell-based;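 also: cells exposed to compound for about 90 hours before reading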
cells = assay type: functional
[17] = Vero E6 cell cytotoxicity, dose response, cytotoxicity control for non-replicating M. tuberculosis project, secondary assay (AID 492998); assay type: functional, VeroE6; details: Vero C1008
[18] = THP-1 cell cytotoxicity, dose response, cytotoxicity control for non-replicating M. tuberculosis project (AID 489025); assay type: functional
[19] = Luminescent dose response cell-based high throughput screening assay for inhibitors of the Janus kinase 2 mutant JAK2V617F. [Related pubchem assays: 1446 (Primary screen.), 1521 (Confirmation assay.), 1486 (Counter screen.)]; assay type: functional
[20] = viability inhibitors of stage V gametocytes – luminescence, dose response (AID 1117278); assay type: functional, cell-based;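 also: gametocytes exposed to compound for 24 hours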
[21] = viability loss in human Jurkat cells – cell-based, luminescence, cytotoxicity control for P. falciparum gametocyte viability project, dose response (AID 1117277); assay type: functional;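 also: potency reflects loss of cellular ATP meaning fewer viable cells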
[22] = Dd2 parasite growth inhibition in erythrocytes – SYBR Green, dry powder samples, set 9, dose response (AID 1159568); assay type: functional, cell-based
[23] = target: G-protein coupled receptor 183 (Homo sapiens, UniProt P32249); experiment: SAR confirmation of small molecule antagonists of the EBI2 receptor via a luminescent beta-arrestin assa.; assay type: functional
Sequence of G-protein coupled receptor 183 (P32249 whole entry): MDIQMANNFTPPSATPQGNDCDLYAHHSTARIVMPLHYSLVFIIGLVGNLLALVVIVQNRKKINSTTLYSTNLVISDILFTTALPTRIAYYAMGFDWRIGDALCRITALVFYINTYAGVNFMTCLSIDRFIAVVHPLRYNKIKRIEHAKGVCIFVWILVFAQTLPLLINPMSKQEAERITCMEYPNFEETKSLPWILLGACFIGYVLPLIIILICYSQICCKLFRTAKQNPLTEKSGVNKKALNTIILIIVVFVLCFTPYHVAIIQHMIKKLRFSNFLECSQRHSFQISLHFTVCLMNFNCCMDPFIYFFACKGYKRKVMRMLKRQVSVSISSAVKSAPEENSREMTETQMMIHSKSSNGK

[24] = toxicity to human hepatoma HepG2 cells – cell-based, cherry-picked samples, cytotoxicity control, dose response (AID 1159577); assay type: functional
[25] = P. falciparum Dd2 growth inhibitors, dose response, SYBR Green, cherry-picked samples (AID 1159567); assay type: functional, cell-based
[26] = target: T5, Low molecular weight phosphotyrosine protein phosphatase (Homo sapiens, UniProt P24666); experiment: inhibition of human LMPTP enzyme activity – biochemical, absorbance, pNPP substrate, LMPTP-A isoform, set 2, orthogonal assay, dose response (AID 743308); assay type: functional
T5 sequence (P24666 whole entry): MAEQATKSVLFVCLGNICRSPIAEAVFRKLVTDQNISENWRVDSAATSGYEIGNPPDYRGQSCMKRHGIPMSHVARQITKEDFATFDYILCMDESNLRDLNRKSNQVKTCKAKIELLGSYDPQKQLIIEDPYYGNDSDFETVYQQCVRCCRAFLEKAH

[27] = target: T5, Low molecular weight phosphotyrosine protein phosphatase; experiment: inhibition of LMPTP-A enzymatic activity – biochemical, OMFP substrate, fluorescence intensity, set 2, dose response (AID 743307); assay type: functional
[28] = SNU-C1 cell viability reduction, dose response, CellTiter-Glo luminescence (AID 1117323); assay type: functional, cell-based
[29] = rise of 2N DNA cells, HeLa – IC50, dose response (AID 1117349); assay type: functional, cell-based
[30] = CellTiter-Glo luminescence survival assay, SW480 colon tumor line, concentration-response curve, half-maximal inhibitory concentration (AID 1117338); assay type: functional
[31] = cytotoxicity toward HT-29 cells – cell-based, CellTiter-Glo luminescence, IC50, dose response (AID 1117330); assay type: functional
[32] = rise of 4N DNA cells, HeLa – IC50, dose response (AID 1117351); assay type: functional, cell-based
[33] = Reduced DLD-1 viability, concentration-response, CellTiter-Glo luminescence (AID 1117352); assay type: functional
[34] = cytotoxicity toward HCT116 cells – cell-based, CellTiter-Glo luminescence, IC50, dose response (AID 1117332); assay type: functional; details: HCT-116
[35] = RKO cell viability reduction, dose response, CellTiter-Glo luminescence (AID 1117322); assay type: functional
[36] = cytotoxicity toward Colo320 cells – cell-based, CellTiter-Glo luminescence, IC50, dose response (AID 1117334); assay type: functional; details: COLO 320
[37] = HCT116 cell viability decrease, GSK3B pretreatment – CellTiter-Glo, IC50, dose response (AID 1117339); assay type: functional; details: HCT-116

## CC(C)c1nc2sc3c(NCc4ccco4)ncnc3c2c2c1COC(C)(C)C2
[1]
  CC50: > 40 µM (active)
[2]
  EC50: > 120 µM (not active)
HEK293 [3]
  EC50: > 59.6 µM (inactive)
HEK293 [4]
  EC50: > 59.6 µM (inactive)
[5]
  EC50: 19.2 µM (active)
[6]
  IC50: > 50 µM (active)
[7]
  EC50: > 120 µM (not active)

## COc1ccc(C(=O)Nc2ccccc2C(=O)O)cc1Cl
[8]
  EC50: 13 µM (active)
Hexokinase
  IC50: > 25 µM (inactive)

## COc1ccc(C2C(C#N)=C(N)SC(N)=C2C#N)cc1OC
[9]
  IC50: > 31 µM (not active)

## CCOC(=O)c1ccc(NC(=O)CSc2nc(C)cc(=O)[nH]2)cc1
Estrogen receptor
  IC50: 3.06 µM (active)
[10]
  IC50: 2.67 µM (active)
[11]
  IC50: 23.3 µM (active)
Estrogen receptor beta
  IC50: < 0.023 µM (not active)
Leucine aminopeptidase
  IC50: 11.8 µM (active)

## CCOC(=O)N1CCN(C(=O)CSCC(=O)Nc2nc(-c3ccc(-c4ccccc4)cc3)cs2)CC1
INS1
  AC50: 4.63 µM (active)
[12]
  IC50: 5.66 µM (active)
[13]
  IC50: 2.47 µM (active)

## COc1ccccc1-c1nnc(Sc2nc([N+](=O)[O-])nn2C)o1
[14]
  EC50: 0.556 µM (active)
HEK293 [15]
  AC50: 4.37 µM (active)
[16]
  EC50: 17.5 µM (active)
cells
  IC50: 1.95 µM (active)
[17]
  CC50: 17.5 µM (active)
[18]
  CC50: 13.6 µM (active)
[19]
  IC50: 1.52 µM (active)

## CC(=O)c1c(C)[nH]c(C(=O)COC(=O)C2CC2)c1C
[20]
  IC50: > 109 µM (inactive)
[21]
  IC50: > 83.2 µM (inactive)

## COc1ccc2c3c(n(C)c2c1)[C@@H](CO)N(Cc1ccc2c(c1)OCO2)CC31CN(C(=O)c2ccc3c(c2)OCO3)C1
[22]
  AC50: 1.21 µM (active)

## Cc1ccc(S(=O)(=O)N2CCN(C(=O)/C=C/c3ccc(F)cc3)CC2)cc1
[23]
  IC50: 0.00767 µM (active)

## Cc1ccccc1S(=O)(=O)N1CC(=O)N2[C@H](C1)[C@@H](c1ccc(C#CCC3CCCC3)cc1)[C@@H]2CO
[24]
  AC50: > 42 µM (inactive)
[25]
  AC50: 3.64 µM (active)

## c1ccc2c(NCCCN3CCCCC3)cc(-c3ccncc3)nc2c1
[26]
  IC50: 6.49 µM (active)
[27]
  IC50: 2.48 µM (active)

## Cc1c(C)c2c(c(C)c1O)CCC(C)(COc1ccc(CC3SC(=O)NC3=O)cc1)O2 (stereo not drawn) [TROGLITAZONE]
[28]
  IC50: > 20 µM (inactive)
[29]
  IC50: > 10 µM (inactive)
[30]
  IC50: 5.59 µM (inactive)
[31]
  IC50: > 20 µM (inactive)
[32]
  IC50: > 10 µM (inactive)
[33]
  IC50: 12.3 µM (inactive)
[34]
  IC50: 1.4 µM (active)
[35]
  IC50: 7.76 µM (inactive)
[36]
  IC50: 9.49 µM (inactive)
[37]
  IC50: 1.3 µM (active)
